These results are taken from PubChem BioAssay (NCI).

What all share (test): NCI tumour cell line growth inhibition, 48 h
Assay [1] relates to NCI-H460 lung.
Assay [2] relates to UACC-257 melanoma.
The test system of assay [3] is HOP-92 NSCLC.
In assay [4] the test system is NCI-H522 lung.
In assay [5] the test system is 786-0 renal.
Assay [6] deals with EKVX NSCLC.
The subject of assay [7] is U251 CNS.
The test system of assay [8] is UO-31 renal.
Assay [9] has as its system IGROV1 ovarian.
Assay [10] has as its system MCF7 breast.

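1) Cells in 96-well plates. 2) Compound, 48 h, 5 concentrations. 3) Linear interpolation between surrounding doses. 4) Unreached endpoint = highest concentration. GI50 marks 50% less growth. Definition used: TGI = concentration required for complete inhibition of growth.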 Some results are limits rather than exact numbers.

As for `COC(=O)c1ccc2c(c1)C(=O)c1c-2n(CCCCl)c(=O)c2cc([N+](=O)[O-])ccc12`, the GI50 in assay [1] is 23.1 µM; in [2], > 100 µM; in assay [3], 23.6 µM; in assay [4] it was 51 µM; in [5] it was 63.5 µM; in [6], > 100 µM. Also, the GI50 in assay [7] was 53.1 µM; in assay [8], 49.1 µM; in assay [9], 34.9 µM; in assay [10], 52 µM. Further, the TGI in [1] was > 100 µM; in assay [2], > 100 µM; in assay [3] it was 90.9 µM; in [4], > 100 µM; in assay [5] it was > 100 µM; in assay [6] it was > 100 µM. In addition, the TGI in assay [7], in assay [8], in assay [9] and in assay [10] was > 100 µM throughout.

As for `CC1=C2CC(C)(C)/C=C\C(=O)/C(C)=C\C3=C[C@H](C)C[C@]3(O2)C1=O`, the TGI in assay [1] is 14 µM; in [2], 4.41 µM; in assay [3], 2.88 µM; in assay [4] it was 0.651 µM; in [5], 1.25 µM; in assay [6], 6.15 µM. Besides, the TGI is 9.98 µM in assay [7], 2.61 µM in assay [8], 5.44 µM in [9] and 2.14 µM in assay [10].

Turning to `COc1ccc(C#Cc2ccc(=O)oc2-c2cc(OC)c(OC)c(OC)c2)cc1O`, the GI50 in [1] is 0.973 µM; in [2], 7.87 µM; in assay [3], 0.575 µM; in [4], 1.1 µM; in [5] it was 5.49 µM; in assay [6], 22.2 µM. The GI50 is 5.4 µM in [7], 11.1 µM in assay [8], 1.02 µM in assay [9] and 0.666 µM in [10]. Moreover, the TGI was > 100 µM in assay [1]; > 100 µM in [2]; 38.8 µM in [3]; 22.3 µM in assay [4]; > 33.2 µM in [5]; > 100 µM in assay [6]. The TGI in assay [7] is > 100 µM; in assay [8] it was > 79.8 µM; in [9], 6.75 µM; in [10] it was > 100 µM.

On to `O=C(CC1(O)C(=O)N(Cc2ccccc2)c2ccc(Cl)cc21)c1ccc(C(=O)NCC2CCC3(CC2)OOC2(CCCCC2)OO3)cc1` (stereo not given), for which the GI50 in assay [1] was 0.231 µM; in [2] it was 8.61 µM; in assay [3], 0.214 µM; in assay [4] it was 0.169 µM; in [5], 0.192 µM; in [6], 0.306 µM. The GI50 in assay [7] was 0.211 µM; in [8], 0.134 µM; in [9], 0.197 µM; in assay [10], 1.81 µM. In addition, the TGI in assay [1] was 0.491 µM; in [2] it was > 100 µM; in assay [3], 0.402 µM; in assay [4], 0.373 µM; in assay [5] it was 0.367 µM; in [6], 1.08 µM. For the same molecule, the TGI was 0.426 µM in assay [7], 0.289 µM in assay [8], 0.444 µM in assay [9] and 66.2 µM in [10].

`O=C1C(=C(C(F)(F)Cl)C(F)(F)Cl)C2CCC1C2` (stereo not given): the TGI in [1] was > 7.96 µM; in assay [2], 4.2 µM; in [3] it was 6.42 µM; in assay [4] it was 0.56 µM; in assay [5] it was 3.64 µM; in assay [6], > 10 µM. In addition, the TGI in [7] is > 10 µM; in assay [8] it was > 6.47 µM; in assay [9], 3.62 µM; in assay [10], > 6.52 µM.

As to `Cc1ccc2oc(=O)cc(/C(=C3/C=CC=N3)c3ccc[nH]3)c2c1`, the GI50 in assay [1] was 0.353 µM; in assay [2] it was 0.711 µM; in assay [3], 0.155 µM; in [4], 1.53 µM; in assay [5], 0.279 µM; in [6] it was 0.435 µM. The GI50 in [7] is 0.319 µM; in [8] it was 0.45 µM; in assay [9] it was 0.468 µM; in assay [10], 0.348 µM. The TGI in assay [1] is 3.52 µM; in [2], 4.06 µM; in assay [3], 2.57 µM; in assay [4], 5.22 µM; in [5], 0.892 µM; in assay [6], 4.51 µM. For the same molecule, the TGI in [7] is 1.57 µM; in [8], 5.11 µM; in [9] it was 6.5 µM; in [10], 4.23 µM.

Turning to `COc1cc(Oc2c(C)c(Cl)c(OC)c(Cl)c2OC)c2c(c1Cl)COC2=O`, the TGI in [1] was > 100 µM; in assay [2], > 100 µM; in [3] it was > 100 µM; in [4], 33.7 µM; in assay [5], 68.4 µM; in assay [6], > 100 µM. Besides, the TGI is > 100 µM in [7], > 100 µM in assay [8], > 100 µM in [9] and 86.2 µM in [10].

With `Cc1c2ccn(O)cc2c(C)c2c1nc1ccccc12`, the TGI in assay [1] is 37.9 µM; in assay [2], > 100 µM; in [3] it was 38.5 µM; in assay [4] it was 22.3 µM; in assay [5], 35.4 µM; in assay [6] it was > 71.3 µM. Besides, the TGI in assay [7] was 16.7 µM; in [8], 27.5 µM; in assay [9], 55.8 µM; in assay [10], > 100 µM.

As to `COC(=O)C1=C(O)[C@H](C(=O)OC)C2(O)C(C(=O)OC)[C@H](c3ccc(OC(=O)C(C)c4ccccc4)cc3)C[C@@H]1[C@@H]2C(=O)OC` (stereo not given in full), the GI50 is 19.4 µM in assay [1]; 41.1 µM in assay [2]; > 50 µM in [3]; 15.9 µM in assay [4]; 38.9 µM in assay [5]; 32.5 µM in assay [6]. The GI50 in assay [7] was 27.4 µM; in [8], 29.5 µM; in [9], 26.7 µM; in [10], 33.7 µM. Besides, the TGI was > 50 µM in assay [1]; > 50 µM in assay [2]; > 50 µM in assay [3]; 45.1 µM in assay [4]; > 50 µM in [5]; > 50 µM in assay [6]. The TGI in assay [7], in [8], in [9] and in assay [10] was > 50 µM throughout.
